Data as given in patent publication US20140228377A1, “METHYLPIPERIDINE DERIVATIVE” (TAISHO PHARMACEUTICAL CO., LTD., priority 2011, published 2014).

Columns and labels:
[1] = biological target: T1, human orexin-1 receptor (hOX1R) (Homo sapiens, UniProt O43613); assay: Orexin antagonistic activity assay (intracellular Ca2+, FDSS) in CHO cells expressing hOX1R; assay type: cell-based; conditions: CHO cells expressing hOX1R; ligand peptide 300 pM; Fluo-3 maximum fluorescence intensity; read-out: IC50 value OX1
T1 construct: expressed in transfected cells; host or cells: Chinese hamster ovary (CHO) cells
T1 sequence (O43613 1-425): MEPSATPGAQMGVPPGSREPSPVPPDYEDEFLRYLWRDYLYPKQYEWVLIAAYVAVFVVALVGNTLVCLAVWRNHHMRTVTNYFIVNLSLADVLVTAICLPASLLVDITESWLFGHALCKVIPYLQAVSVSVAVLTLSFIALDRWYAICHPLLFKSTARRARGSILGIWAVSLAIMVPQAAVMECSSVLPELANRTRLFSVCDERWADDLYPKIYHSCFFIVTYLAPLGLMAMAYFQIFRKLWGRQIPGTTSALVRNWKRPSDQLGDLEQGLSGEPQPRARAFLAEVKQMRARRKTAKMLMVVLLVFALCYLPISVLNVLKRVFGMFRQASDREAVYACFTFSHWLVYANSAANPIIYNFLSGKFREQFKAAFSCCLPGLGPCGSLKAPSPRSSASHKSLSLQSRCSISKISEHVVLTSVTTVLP
Procedure: (§1) The antagonistic activity of each test compound against human orexin-1 receptor (hOX1R) and orexin-2 receptor (hOX2R) was assayed by a modification of a method described in the literature (Toshikatsu Okumura et al., Biochemical and Biophysical Research Communications 280, 976-981, 2001). Chinese hamster ovary (CHO) cells forced to express hOX1R or hOX2R were inoculated at a density of 20,000 cells/well to a 96-well Black clear bottom plate (Nunc) and cultured at 37° C. for 16 hours under 5% CO2 conditions in a Ham's F-12 medium containing 0.1 mM MEM nonessential amino acids, 0.5 mg/ml G418, and 10% fetal bovine serum (all from Invitrogen Corp.). After removal of the medium, 100 μL of a buffer solution for assay (25 mM HEPES (Dojindo Laboratories), Hanks' balanced salt solution (Invitrogen Corp.), 0.1% bovine serum albumin, 2.5 mM probenecid, and 200 μg/ml Amaranth (all from Sigma-Aldrich Corp.), pH 7.4) containing 0.5 μM Fluo-3 AM ester (Dojindo Laboratories) was added to the cells, which were then incubated at 37° C. for 60 minutes under 5% CO2 conditions. After removal of the buffer solution for assay containing Fluo-3 AM ester, each test compound was dissolved at a concentration of 10 mM in dimethyl sulfoxide and diluted with a buffer solution for assay. Then, 150 μL of the solution was added to the cells, which were then incubated for 30 minutes.
(§2) A ligand peptide (Pyr-[…]NH2; Peptide Institute, Inc.) derived from human orexin-A by the substitution of two amino acids was diluted with a buffer solution for assay to final concentrations of 300 pM for hOX1R and 3 nM for hOX2R. Reaction was initiated by the addition of 50 μL of this ligand solution. The fluorescence intensity of the reaction was measured in each well every second for 3 minutes using Functional Drug Screening System (FDSS; manufactured by Hamamatsu Photonics K.K.), and the maximum fluorescence intensity was used as an index for intracellular Ca^2+ concentration to determine antagonistic activity. The antagonistic activity of the test compound was calculated with fluorescence intensity from a well supplemented with only a diluting buffer solution as 100% and fluorescence intensity from a well supplemented with a buffer solution free from the ligand and the compound as 0%. The 50% inhibitory concentration (IC50 value) was determined on the basis of fluorescence intensity derived from the test compound added at varying concentrations.

[2] = biological target: T2, orexin-2 receptor (hOX2R) (Homo sapiens, UniProt O43614); assay: Orexin antagonistic activity assay (intracellular Ca2+, FDSS) in CHO cells expressing hOX2R; assay type: cell-based; conditions: CHO cells expressing hOX2R; ligand peptide 3 nM; Fluo-3 maximum fluorescence intensity; read-out: IC50 value OX2
T2 construct: expressed in transfected cells; host or cells: Chinese hamster ovary (CHO) cells
T2 sequence (O43614 1-444): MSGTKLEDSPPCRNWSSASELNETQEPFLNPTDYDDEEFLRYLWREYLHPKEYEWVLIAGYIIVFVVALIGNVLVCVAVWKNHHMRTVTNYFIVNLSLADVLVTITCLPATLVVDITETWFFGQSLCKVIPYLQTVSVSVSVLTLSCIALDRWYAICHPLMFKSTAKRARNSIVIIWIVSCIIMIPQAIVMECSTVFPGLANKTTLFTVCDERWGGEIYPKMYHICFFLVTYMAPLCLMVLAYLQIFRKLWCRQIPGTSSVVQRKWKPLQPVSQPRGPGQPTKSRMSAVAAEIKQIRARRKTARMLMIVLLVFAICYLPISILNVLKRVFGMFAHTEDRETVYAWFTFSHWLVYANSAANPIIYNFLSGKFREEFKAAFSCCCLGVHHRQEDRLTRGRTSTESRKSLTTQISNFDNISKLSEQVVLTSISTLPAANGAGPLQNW
Procedure: as §1, §2

| SMILES | IC50 [1] [nM] | IC50 [2] [nM] |
| --- | --- | --- |
| C[C@@H]1CC[C@@H](c2nc3cc(Cl)ccc3o2)CN1C(=O)c1cc(Br)ccc1-n1nccn1 [Example 22, [5-Bromo-2-(2H-1,2,3-triazol-2-yl)phenyyl][(2R,5R)-5-(5-chloro-1,3-benzoxazol-2-yl)-2-methylpiperidin-1-yl]methanone] | 31.9 | 7.8 |
| COc1cnc(-c2ccc(F)cc2C(=O)N2C[C@H](c3nc4cc(Cl)ccc4o3)CC[C@H]2C)nc1 [Example 24, [(2R,5R)-5-(5-Chloro-1,3-benzoxazol-2-yl)-2-methylpiperidin-1-yl][5-fluoro-2-(5-methoxypyrimidin-2-yl)phenyl]methanone] | 99.2 | 8.5 |
| Cc1ccc(C(=O)N2C[C@H](c3nc4cc(Cl)ccc4o3)CC[C@H]2C)c(-n2nccn2)c1 [Example 26, [(2R,5R)-5-(5-Chloro-1,3-benzoxazol-2-yl)-2-methylpiperidin-1-yl][4-methyl-2-(2H-1,2,3-triazol-2-yl)phenyl]methanone] | 11 | 8.4 |
| C[C@@H]1CC[C@@H](c2nc3cc(Cl)ccc3o2)CN1C(=O)c1ccc(Cl)cc1-n1nccn1 [Example 27, [(2R,5R)-5-(5-Chloro-1,3-benzoxazol-2-yl)-2-methylpiperidin-1-yl][4-chloro-2-(2H-1,2,3-triazol-2-yl)phenyl]methanone] | 1790 | 187 |
| C[C@@H]1CC[C@@H](c2nc3cc(F)ccc3o2)CN1C(=O)c1ccccc1-n1nccn1 [Example 28, [(2R,5R)-5-(5-Fluoro-1,3-benzoxazol-2-yl)-2-methylpiperidin-1-yl][2-(2H-1,2,3-triazol-2-yl)phenyl]methanone] | 50.4 | 1.5 |
| C[C@@H]1CC[C@@H](c2nc3cc(F)ccc3o2)CN1C(=O)c1cc(F)ccc1-n1nccn1 [Example 29, [(2R,5R)-5-(5-Fluoro-1,3-benzoxazol-2-yl)-2-methylpiperidin-1-yl][5-fluoro-2-(2H-1,2,3-triazol-2-yl)phenyl]methanone] | 111 | 6 |
| C[C@@H]1CC[C@@H](c2nc3cc(F)ccc3o2)CN1C(=O)c1cc(F)ccc1-c1ncccn1 [Example 32, [(2R,5R)-5-(5-Fluoro-1,3-benzoxazol-2-yl)-2-methylpiperidin-1-yl][5-fluoro-2-(pyrimidin-2-yl)phenyl]methanone] | 24.9 | 8.2 |
| C[C@@H]1CC[C@@H](c2nc3cc(F)ccc3o2)CN1C(=O)c1cc(Cl)ccc1-c1ncccn1 [Example 33, [5-Chloro-2-(pyrimidin-2-yl)phenyl][(2R,5R)-5-(5-fluoro-1,3-benzoxazol-2-yl)-2-methylpiperidin-1-yl]methanone] | 44.6 | 9.2 |
| C[C@@H]1CC[C@@H](c2nc3cc(F)ccc3o2)CN1C(=O)c1ccc(F)cc1-n1nccn1 [Example 34, [(2R,5R)-5-(5-Fluoro-1,3-benzoxazol-2-yl)-2-methylpiperidin-1-yl][4-fluoro-2-(2H-1,2,3-triazol-2-yl)phenyl]methanone] | 212 | 8.4 |
| C[C@@H]1CC[C@@H](c2nc3cc(F)ccc3o2)CN1C(=O)c1c(F)cccc1-n1nccn1 [Example 35, [(2R,5R)-5-(5-Fluoro-1,3-benzoxazol-2-yl)-2-methylpiperidin-1-yl][2-fluoro-6-(2H-1,2,3-triazol-2-yl)phenyl]methanone] | 91.1 | 5 |
| C[C@@H]1CC[C@@H](c2nc3cc(C(F)(F)F)ccc3o2)CN1C(=O)c1cc(F)ccc1-c1ncccn1 [Example 38, [5-Fluoro-2-(pyrimidin-2-yl)phenyl]{(2R,5R)-2-methyl-5-[5-(trifluoromethyl)-1,3-benzoxazol-2-yl]piperidin-1-yl}methanone] | 814 | 78.6 |
| Cc1ccc(-c2ncccn2)c(C(=O)N2C[C@H](c3nc4cc(OC(F)(F)F)ccc4o3)CC[C@H]2C)c1 [Example 41, [5-Methyl-2-(pyrimidin-2-yl)phenyl]{(2R,5R)-2-methyl-5-[5-(trifluoromethoxy)-1,3-benzoxazol-2-yl]piperidin-1-yl}methanone] | 177 | 45.1 |

Continued by falling IC50 [1], values first:

| IC50 [1] [nM] | IC50 [2] [nM] | SMILES |
| --- | --- | --- |
| 387 | 66 | COc1ccc(-n2nccn2)c(C(=O)N2C[C@H](c3nc4cc(Cl)ccc4o3)CC[C@H]2C)c1 [Example 25, [(2R,5R)-5-(5-Chloro-1,3-benzoxazol-2-yl)-2-methylpiperidin-1-yl][5-methoxy-2-(2H-1,2,3-triazol-2-yl)phenyl]methanone] |
| 168 | 22.5 | C[C@@H]1CC[C@@H](c2nc3cc(Cl)ccc3o2)CN1C(=O)c1cc(F)ccc1-c1ncc(F)cn1 [Example 23, [(2R,5R)-5-(5-Chloro-1,3-benzoxazol-2-yl)-2-methylpiperidin-1-yl][5-fluoro-2-(5-fluoropyrimidin-2-yl)phenyl]methanone] |
| 157 | 100 | Cc1ccc(-n2nccn2)c(C(=O)N2C[C@H](c3nc4cc(C(F)(F)F)ccc4o3)CC[C@H]2C)n1 [Example 40, [6-Methyl-3-(2H-1,2,3-triazol-2-yl)pyridin-2-yl]{(2R,5R)-2-methyl-5-[5-(trifluoromethyl)-1,3-benzoxazol-2-yl]piperidin-1-yl}methanone] |
| 123 | 26.3 | C[C@@H]1CC[C@@H](c2nc3cc(C(F)(F)F)ccc3o2)CN1C(=O)c1cc(Cl)ccc1-c1ncccn1 [Example 39, [5-Chloro-2-(pyrimidin-2-yl)phenyl]{(2R,5R)-2-methyl-5-[5-(trifluoromethyl)-1,3-benzoxazol-2-yl]piperidin-1-yl}methanone] |
| 74.4 | 3.7 | C[C@@H]1CC[C@@H](c2nc3cc(F)ccc3o2)CN1C(=O)c1cc(Cl)ccc1-n1nccn1 [Example 30, [5-Chloro-2-(2H-1,2,3-triazol-2-yl)phenyl][(2R,5R)-5-(5-fluoro-1,3-benzoxazol-2-yl)-2-methylpiperidin-1-yl]methanone] |
| 68.1 | 29.7 | C[C@@H]1CC[C@@H](c2nc3cc(F)ccc3o2)CN1C(=O)c1ccccc1-c1ncccn1 [Example 31, [(2R,5R)-5-(5-Fluoro-1,3-benzoxazol-2-yl)-2-methylpiperidin-1-yl][2-(pyrimidin-2-yl)phenyl]methanone] |
| 36.5 | 9.3 | Cc1ccc(-c2ncccn2)c(C(=O)N2C[C@H](c3nc4cc(C(F)(F)F)ccc4o3)CC[C@H]2C)c1 [Example 37, [5-Methyl-2-(pyrimidin-2-yl)phenyl]{(2R,5R)-2-methyl-5-[5-(trifluoromethyl)-1,3-benzoxazol-2-yl]piperidin-1-yl}methanone] |
| 8.9 | 2.5 | Cc1ccc(-n2nccn2)c(C(=O)N2C[C@H](c3nc4cc(C(F)(F)F)ccc4o3)CC[C@H]2C)c1 [Example 36, [5-Methyl-2-(2H-1,2,3-triazol-2-yl)phenyl][(2R,5R)-2-methyl-5-[5-(trifluoromethyl)-1,3-benzoxazol-2-yl]piperidin-1-yl]methanone] |
